Where a name gives a salt, the structure may show the parent alone. Read-outs that look alike come from different tables or passages of the source.

For 22 molecules, IC50 results are on record in US10479795B2 (Incyte Corporation, priority 2016, dated 2019).

The test system of test [1] is Phosphorylated Ribosomal Protein S6 (RPS6). The test is described as follows: THP-1 RPS6 ELISA Assay. It counts as cell-based, Human. Particulars: THP-1 cells, read-out: PI3Kγ_THP1_RPS6_ELISA IC50. In short, it runs like this:
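Serum-starved THP-1 cells were preincubated with a concentration range of compound for 2 h at 37 °C, then stimulated with 10 nM MCP-1 for 15 min. Phospho-RPS6 in lysates was quantified by ELISA at 450 nm. IC50 came from percent inhibition versus log inhibitor concentration.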

For test [2], the target named is PI3Kγ (p110γ) Recombinant Human Protein (Homo sapiens (Human), UniProt P48736). The test is described as follows: PI3K-γ Scintillation Proximity Assay. It counts as biochemical. Particulars: read-out: PI3Kγ IC50. In short, it runs like this:
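Recombinant human p110γ assayed at room temperature in 20 mM MOPS pH 6.7, 10 mM MgCl2, 5 mM DTT, 0.03% CHAPS, 2% DMSO, with 20 μM PIP2 and 2 μM ATP plus [γ-33P]ATP. Product captured on WGA SPA beads overnight and counted; IC50 fitted from % of solvent-control activity versus log inhibitor concentration.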

Test [3] deals with PI3Kδ (p110δ/p85α) Recombinant Human Protein (Homo sapiens (Human), UniProt O00329). The test is described as follows: PI3Kδ Scintillation Proximity Assay. It is filed as biochemical. In short, it runs like this:
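Kinase reaction run at room temperature in 20 mM MOPS pH 6.7, 10 mM MgCl2, 5 mM DTT, 0.03% CHAPS with 20 μM PIP2, 2 μM ATP plus [γ-33P]ATP, 3.4 nM enzyme, 2% DMSO; 120 min. Quenched with WGA SPA beads/EDTA, counted by scintillation; IC50 from % solvent-control activity vs log concentration.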

Chain of PI3Kδ (p110δ/p85α) Recombinant Human Protein (O00329 whole entry): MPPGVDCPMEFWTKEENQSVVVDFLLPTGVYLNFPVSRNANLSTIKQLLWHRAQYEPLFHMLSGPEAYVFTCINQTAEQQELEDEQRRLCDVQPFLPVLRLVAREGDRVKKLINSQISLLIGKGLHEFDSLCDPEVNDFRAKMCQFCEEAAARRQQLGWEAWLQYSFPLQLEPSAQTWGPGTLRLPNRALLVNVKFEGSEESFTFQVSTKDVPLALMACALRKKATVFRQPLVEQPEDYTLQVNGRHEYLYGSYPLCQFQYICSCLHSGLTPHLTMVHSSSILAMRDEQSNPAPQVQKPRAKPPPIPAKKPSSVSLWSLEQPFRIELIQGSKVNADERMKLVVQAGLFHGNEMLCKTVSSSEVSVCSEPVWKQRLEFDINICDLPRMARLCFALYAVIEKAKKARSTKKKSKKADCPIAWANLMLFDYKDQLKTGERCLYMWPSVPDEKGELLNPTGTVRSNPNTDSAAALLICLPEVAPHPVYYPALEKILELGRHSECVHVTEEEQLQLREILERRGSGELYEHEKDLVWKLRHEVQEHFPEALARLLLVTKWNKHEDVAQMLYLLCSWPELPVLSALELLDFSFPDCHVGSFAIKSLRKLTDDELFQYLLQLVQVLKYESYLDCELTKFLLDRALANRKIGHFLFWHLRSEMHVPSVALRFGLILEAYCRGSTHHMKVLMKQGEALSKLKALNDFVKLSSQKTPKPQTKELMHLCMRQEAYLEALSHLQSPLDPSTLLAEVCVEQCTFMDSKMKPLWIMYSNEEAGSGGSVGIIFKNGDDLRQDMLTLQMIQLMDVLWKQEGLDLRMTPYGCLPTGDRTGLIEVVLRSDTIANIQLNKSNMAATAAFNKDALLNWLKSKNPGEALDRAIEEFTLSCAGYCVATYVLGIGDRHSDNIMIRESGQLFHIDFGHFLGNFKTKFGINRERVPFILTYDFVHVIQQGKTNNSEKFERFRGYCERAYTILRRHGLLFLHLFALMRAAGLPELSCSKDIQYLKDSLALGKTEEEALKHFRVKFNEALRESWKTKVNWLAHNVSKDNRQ
Chain of PI3Kδ (p110δ/p85α) Recombinant Human Protein (P27986 whole entry partner): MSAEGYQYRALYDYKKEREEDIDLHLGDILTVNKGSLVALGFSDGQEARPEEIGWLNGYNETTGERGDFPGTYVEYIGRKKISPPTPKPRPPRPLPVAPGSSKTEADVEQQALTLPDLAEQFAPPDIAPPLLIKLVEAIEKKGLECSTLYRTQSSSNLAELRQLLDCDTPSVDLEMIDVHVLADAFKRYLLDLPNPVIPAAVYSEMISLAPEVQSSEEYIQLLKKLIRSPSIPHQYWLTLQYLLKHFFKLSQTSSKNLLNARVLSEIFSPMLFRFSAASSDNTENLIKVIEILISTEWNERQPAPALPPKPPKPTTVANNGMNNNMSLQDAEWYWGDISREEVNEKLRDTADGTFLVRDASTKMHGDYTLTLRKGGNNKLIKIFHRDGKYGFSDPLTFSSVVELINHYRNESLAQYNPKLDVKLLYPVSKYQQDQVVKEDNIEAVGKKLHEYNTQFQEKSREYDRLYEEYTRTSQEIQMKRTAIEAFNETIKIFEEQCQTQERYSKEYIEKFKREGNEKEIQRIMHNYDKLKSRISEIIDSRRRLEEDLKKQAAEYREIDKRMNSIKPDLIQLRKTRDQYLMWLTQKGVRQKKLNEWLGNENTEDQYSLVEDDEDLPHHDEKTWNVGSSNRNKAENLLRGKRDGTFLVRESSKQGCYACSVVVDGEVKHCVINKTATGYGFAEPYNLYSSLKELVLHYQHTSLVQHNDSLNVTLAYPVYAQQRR
Chain of PI3Kγ (p110γ) Recombinant Human Protein (P48736 whole entry): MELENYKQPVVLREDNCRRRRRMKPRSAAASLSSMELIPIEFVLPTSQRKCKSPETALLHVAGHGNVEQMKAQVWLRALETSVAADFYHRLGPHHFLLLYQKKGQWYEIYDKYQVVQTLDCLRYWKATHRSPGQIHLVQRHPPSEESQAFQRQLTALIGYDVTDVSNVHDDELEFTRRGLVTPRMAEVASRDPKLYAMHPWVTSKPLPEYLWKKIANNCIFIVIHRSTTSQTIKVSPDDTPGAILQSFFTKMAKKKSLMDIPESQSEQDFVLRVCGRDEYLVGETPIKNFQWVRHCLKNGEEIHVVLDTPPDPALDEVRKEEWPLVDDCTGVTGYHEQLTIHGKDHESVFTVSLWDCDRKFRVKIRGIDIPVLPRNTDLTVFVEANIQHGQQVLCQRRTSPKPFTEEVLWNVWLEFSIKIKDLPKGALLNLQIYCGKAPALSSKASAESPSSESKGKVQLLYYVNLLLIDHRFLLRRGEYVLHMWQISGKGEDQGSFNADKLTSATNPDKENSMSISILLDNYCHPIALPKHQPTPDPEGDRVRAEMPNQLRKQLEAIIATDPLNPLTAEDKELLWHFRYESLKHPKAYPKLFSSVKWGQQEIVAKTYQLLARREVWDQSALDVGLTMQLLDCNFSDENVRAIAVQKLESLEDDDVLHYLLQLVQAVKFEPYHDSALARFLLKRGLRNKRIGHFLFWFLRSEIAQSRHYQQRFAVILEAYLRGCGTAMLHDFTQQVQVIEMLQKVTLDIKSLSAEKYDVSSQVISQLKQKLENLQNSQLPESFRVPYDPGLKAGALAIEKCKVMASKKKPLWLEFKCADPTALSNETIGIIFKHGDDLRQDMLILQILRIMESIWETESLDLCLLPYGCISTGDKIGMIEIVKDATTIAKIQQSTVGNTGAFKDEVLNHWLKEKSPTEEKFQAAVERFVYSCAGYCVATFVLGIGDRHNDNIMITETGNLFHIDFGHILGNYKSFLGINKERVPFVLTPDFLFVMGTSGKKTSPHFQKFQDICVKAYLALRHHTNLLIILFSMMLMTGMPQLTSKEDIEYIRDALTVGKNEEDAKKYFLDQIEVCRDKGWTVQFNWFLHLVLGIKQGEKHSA

`Cc1ccc(S(=O)(=O)NC23CCC(CC2)C3)cc1-c1cnc2c(N)ncnn12` [Example 180, 3-(4-aminoimidazo[1,2-f][1,2,4]triazin-7-yl)-N-(bicyclo[2.2.1]heptan-1-yl)-4-methylbenzenesulfonamide trifluoroacetate salt]: the figures for the IC50 in test [1], in test [2] and in test [3] were 100 to 500 nM, under 100 nM and 100 to 500 nM, respectively.
Turning to `[2H]C([2H])([2H])c1ccc(S(=O)(=O)NC23CCC(C#N)(C2)C3)cc1-c1cnc2c(N)ncnn12` [Example 253, 3-(4-Aminoimidazo[2,1-f][1,2,4]triazin-7-yl)-N-(4-cyanobicyclo[2.1.1]hexan-1-yl)-4-(methyl-d3)benzenesulfonamide (crystalline free base)], the IC50 in test [1] (Homo sapiens) is under 100 nM; in test [2], under 100 nM; in test [3], 100 to 500 nM.
Turning to `Cc1ncc(S(=O)(=O)NC23CCC(C#N)(C2)C3)cc1-c1cnc2c(N)ncnn12` [Example 256, 5-(4-Aminoimidazo[2,1-f][1,2,4]triazin-7-yl)-N-(4-cyanobicyclo[2.1.1]hexan-1-yl)-6-methylpyridine-3-sulfonamide trifluoroacetate salt], the IC50 is 100 to 500 nM in test [1] (Homo sapiens), under 100 nM in test [2] and 100 to 500 nM in test [3].
For `Nc1nccn2c(-c3ccc(F)c(S(=O)(=O)NCC4(CO)CCOCC4)c3)cnc12` [Example 360, 5-(8-aminoimidazo[1,2-a]pyrazin-3-yl)-2-fluoro-N-((4-(hydroxymethyl)tetrahydro-2H-pyran-4-yl)methyl)benzenesulfonamide], the IC50 in test [1] (Homo sapiens) was over 1000 nM; in test [2], 100 to 500 nM; in test [3], 100 to 500 nM.
On to `Cc1ccc(S(=O)(=O)N2CCCC(N)C2)cc1-c1cnc2c(N)nc(C(F)(F)F)cn12` (stereo not drawn) [Example 516, 3-(5-((3-Aminopiperidin-1-yl)sulfonyl)-2-methylphenyl)-6-(trifluoromethyl)imidazo[1,2-a]pyrazin-8-amine trifluoroacetate], for which the IC50 in test [1] (Homo sapiens), in test [2] and in test [3] was under 100 nM throughout.
On to `Cc1ccc(S(C)(=O)=O)cc1-c1cnc2c(N)nc(-c3ccc(C(F)F)cc3)cn12` [Example 475, 6-(4-(Difluoromethyl)phenyl)-3-(2-methyl-5-(methylsulfonyl)phenyl)imidazo[1,2-a]pyrazin-8-amine trifluoroacetate], for which the results for the IC50 in test [1] (Homo sapiens), in test [2] and in test [3] were 500 to 1000 nM, under 100 nM and 100 to 500 nM, respectively.
For `[2H]C([2H])([2H])c1nc(N)c2ncc(-c3cc(S(=O)(=O)NCC(C)(C)O)cc(F)c3C([2H])([2H])[2H])n2n1` [Example 469, 3-(4-Amino-2-(methyl-d3)imidazo[2,1-f][1,2,4]triazin-7-yl)-5-fluoro-N-(2-hydroxy-2-methylpropyl)-4-(methyl-d3)benzenesulfonamide], in that order: 100 to 500 nM, under 100 nM and 100 to 500 nM.
Take `Cc1ccc(S(=O)(=O)N2CCC3(CCOCC3)C2)cc1-c1cnc2c(N)ncnn12` [Example 142, 7-(5-((8-oxa-2-azaspiro[4.5]decan-2-yl)sulfonyl)-2-methylphenyl)imidazo[2,1-f][1,2,4]triazin-4-amine]: the figures for the IC50 in test [1] (Homo sapiens), in test [2] and in test [3] were 100 to 500 nM, under 100 nM and 500 to 2000 nM, respectively.
On to `Cc1ccc(S(=O)(=O)N2CC3C(O)C2CN3C2CCCC2C#N)cc1-c1cnc2c(N)nc(C(F)(F)F)nn12` (stereo not drawn) [Example 353, 2-(5-((3-(4-amino-2-(trifluoromethyl)imidazo[2,1-f][1,2,4]triazin-7-yl)-4-methylphenyl)sulfonyl)-7-hydroxy-2,5-diazabicyclo[2.2.1]heptan-2-yl)cyclopentane-1-carbonitrile], for which the IC50 in test [1] (Homo sapiens) is over 1000 nM; in test [2], under 100 nM; in test [3] it was 500 to 2000 nM.
Turning to `Cc1cc(C)c(S(=O)(=O)NC23CCC(CO)(C2)C3)cc1-c1cnc2c(N)nc(C(F)(F)F)cn12` [Example 400, 5-(8-Amino-6-(trifluoromethyl)imidazo[1,2-a]pyrazin-3-yl)-N-(4-(hydroxymethyl)bicyclo[2.1.1]hexan-1-yl)-2,4-dimethylbenzenesulfonamide trifluoroacetate salt], the IC50 in test [1] (Homo sapiens), in test [2] and in test [3] was under 100 nM in each case.
As to `Cc1ccc(S(=O)(=O)N[C@H]2CC[C@H](O)CC2)cc1-c1cnc2c(N)nc(-c3cccc(F)c3)cn12` [Example 21, 3-[8-Amino-6-(3-fluorophenyl)imidazo[1,2-a]pyrazin-3-yl]-N-(trans-4-hydroxycyclohexyl)-4-methylbenzenesulfonamide], the IC50 in test [1] (Homo sapiens), in test [2] and in test [3] was under 100 nM each time.
For `Cc1ccc(S(=O)(=O)CC2CC(F)(F)C2)cc1-c1cnc2c(N)ncnn12` [Example 500, 7-(5-(((3,3-Difluorocyclobutyl)methyl)sulfonyl)-2-methylphenyl)imidazo[2,1-f][1,2,4]triazin-4-amine], the figures for the IC50 in test [1] (Homo sapiens), in test [2] and in test [3] were 100 to 500 nM, under 100 nM and 500 to 2000 nM, respectively.
As to `Cc1ccc(S(=O)(=O)NC23CC(C2)C3)cc1-c1cnc2c(N)ncnn12` [Example 106, 3-(4-Aminoimidazo[1,2-f][1,2,4]triazin-7-yl)-N-(bicyclo[1.1.1]pentan-1-yl)-4-methylbenzenesulfonamide trifluoroacetate salt], the IC50 is over 1000 nM in test [1], under 100 nM in test [2] and 500 to 2000 nM in test [3].
In the case of `Cc1cc(F)c(S(=O)(=O)N2CCCC(CO)C2)cc1-c1cnc2c(N)nc(C(F)(F)F)cn12` (stereo not drawn) [Example 408, (1-((5-(8-Amino-6-(trifluoromethyl)imidazo[1,2-a]pyrazin-3-yl)-2-fluoro-4-methylphenyl)sulfonyl)piperidin-3-yl)methanol], the IC50 in test [1] (Homo sapiens) was over 1000 nM; in test [2] it was under 100 nM; in test [3], 100 to 500 nM.
For `Cc1nc(N)c2ncc(-c3cc(S(=O)(=O)NCC(O)C(F)(F)F)ccc3C)n2n1` (single isomer, unassigned) [Example 267, 3-(4-Amino-2-methylimidazo[1,2-f][1,2,4]triazin-7-yl)-4-methyl-N-(3,3,3-trifluoro-2-hydroxypropyl)benzenesulfonamide (single enantiomer isolated)], the IC50 in test [1] is 100 to 500 nM; in test [2], under 100 nM; in test [3] it was 100 to 500 nM.
In the case of `Cc1ccc(S(=O)(=O)NC2CC(F)(F)C2)cc1-c1cnc2c(N)ncnn12` [Example 132, 3-(4-aminoimidazo[2,1-f][1,2,4]triazin-7-yl)-N-(3,3-difluorocyclobutyl)-4-methylbenzenesulfonamide], the figures for the IC50 in test [1] (Homo sapiens), in test [2] and in test [3] were 100 to 500 nM, under 100 nM and 100 to 500 nM, respectively.
`Cc1ccc(S(=O)(=O)NC2CC2)cc1-c1cnc2c(N)nccn12` [Example 47, 3-(8-Aminoimidazo[1,2-a]pyrazin-3-yl)-N-cyclopropyl-4-methylbenzenesulfoanmide]: the figures for the IC50 in test [1], in test [2] and in test [3] were over 1000 nM, under 100 nM and 500 to 2000 nM, respectively.
With `Cc1ccc(S(=O)(=O)N2CCNC[C@@H]2CO)cc1-c1cnc2c(N)ncnn12` [Example 166, (R)-(1-((3-(4-aminoimidazo[2,1-f][1,2,4]triazin-7-yl)-4-methylphenyl)sulfonyl)piperazin-2-yl)methanol], the IC50 in test [1] (Homo sapiens) is 100 to 500 nM; in test [2] it was under 100 nM; in test [3], 100 to 500 nM.
With `[2H]C([2H])([2H])c1ccc(S(=O)(=O)NC23CCC(O)(C2)C3)cc1-c1cnc2c(N)ncnn12` [Example 374, 3-(4-Aminoimidazo[2,1-f][1,2,4]triazin-7-yl)-N-(4-hydroxybicyclo[2.1.1]hexan-1-yl)-4-(methyl-d3)benzenesulfonamide], the IC50 in test [1] (Homo sapiens) was 500 to 1000 nM; in test [2] it was under 100 nM; in test [3], 500 to 2000 nM.
Take `Nc1nc(C(F)(F)F)nn2c(-c3cccc(S(=O)(=O)NC45CCC(CO)(C4)C5)c3)cnc12` [Example 411, 3-(4-Amino-2-(trifluoromethyl)imidazo[1,2-f][1,2,4]triazin-7-yl)-N-(4-(hydroxymethyl)bicyclo[2.1.1]hexan-1-yl)benzenesulfonamide trifluoroacetate salt]: the IC50 in test [1] was 100 to 500 nM; in test [2], under 100 nM; in test [3], 100 to 500 nM.
On to `N#CC12CCC(NS(=O)(=O)c3cccc(-c4cnc5c(N)nc(C(F)(F)F)nn45)c3)(C1)C2` [Example 415, 3-(4-Amino-2-(trifluoromethyl)imidazo[1,2-f][1,2,4]triazin-7-yl)-N-(4-cyanobicyclo[2.1.1]hexan-1-yl)benzenesulfonamide trifluoroacetate salt], for which the results for the concentration for half-maximal inhibition (IC50) in test [1], in test [2] and in test [3] were under 100 nM, under 100 nM and 100 to 500 nM, respectively.
Take `Cc1ccc(S(=O)(=O)NC23CCC(C#N)(C2)C3)cc1-c1cnc2c(N)ncnn12` [Example 251, 3-(4-Aminoimidazo[2,1-f][1,2,4]triazin-7-yl)-N-(4-cyanobicyclo[2.1.1]hexan-1-yl)-4-methylbenzenesulfonamide trifluoroacetate salt]: the IC50 in test [1] (Homo sapiens) is under 100 nM; in test [2] it was under 100 nM; in test [3], 100 to 500 nM.
